According to patent US12485102B2, “Methods and compositions for treating cancer” (The Wistar Institute of Anatomy and Biology, priority 2017, dated 2025):

Columns and labels:
[1] = test system: CD8+ T cells from OT-1 mice; assay: Phenotype, gene expression, fatty acid uptake and effector functions of drug-treated OT-1 CD8+ T cells in vitro
Description: We initially tested stimulation of OT-1 T cells by the polyclonal activators anti-CD3 and anti-CD28 or by their cognate peptide [sequence] and IL-2.

[2] = test system: B16OVA tumor cells; assay: Adoptive transfer of drug-pre-treated OT-1 cells into B16OVA tumor-bearing mice: tumor progression; conditions: cells treated with 100 μM of FFA, last 2 days; n=5/group
Procedure: The cells were then treated for 2 days with 50 μM fenofibric acid or DMSO. Cells were injected i.v. into C57B1/6 recipient mice that had been injected 5 days earlier with B16OVA tumor cells. Tumor sizes were monitored. Tumor weights were measured at necropsy.
Mice were injected with 10^5 B16.F10 melanoma cells that were transduced to express the immunodominant epitope of ovalbumin [sequence]
Tumor growth in the mouse models was monitored for up to 24 days.
To assess how metabolic reprogramming affects tumor antigen-specific CD8+ T cells within a TME, mice were challenged with B16OVA tumor cells. […] Tumor progression was monitored and once tumors became large, splenocytes and tumor-infiltrating cells were isolated and characterized.
In another experiment, we treated cells with 100 μM of FFA (or as a control DMSO) for the last 2 days of culture. […] We analyzed tumor weights and splenocytes and tumor infiltrating lymphocytes (TILs) at necropsy for recovery, phenotypes, and functions of the donor OT-1 cells.

[3] = test system: CD8+ T cells from OT-1 mice; assay: Cell recovery and blast formation of in vitro stimulated, drug-treated OT-1 CD8+ T cells; assay type: cell-based
[4] = test system: CD8+ T cells from OT-1 mice; assay: Seahorse oxygen consumption rates (OXPHOS) of drug-treated OT-1 CD8+ T cells; assay type: cell-based; conditions: 10 or 100 μM, last 2 days of culture; FIG. 10
Procedure: They were then analyzed for oxygen consumption rates (OCR) by Seahorse (left graph). In addition, after culture all live cells, CD8+ cells and activated CD44+CD8+ cells were counted to assess potential toxicity.
Seahorse experiments were conducted to further characterize the effects of FF on CD8+ T cell metabolism.
Cells were treated with 10 or 100 μM of FFA or FFP for the last 2 days of culture. […] See, FIG. 9. Both drugs increased OXPHOS as shown by increased oxygen consumption rates.

Structure (SMILES): CC(C)OC(=O)C(C)(C)Oc1ccc(C(=O)c2ccc(Cl)cc2)cc1 [FF, fenofibrate]
- T cell proliferation in response to IL-2 ([1]; FF-treated cells): no effect

Structure (SMILES): CC(C)(Oc1ccc(C(=O)c2ccc(Cl)cc2)cc1)C(=O)O [FFA, fenofibric acid]
- mice that developed progressing tumors [2]: 2 mice
- mice with only small tumors that failed to grow [2]: 3 mice
- toxicity in the in vitro or ex vivo pretreatment of the T cells ([3]; compared with fenofibrate, FIG. 8): reduced toxicity

Structure (SMILES): C[C@H](NC(=O)C(C)(C)Oc1ccc(C(=O)c2ccc(Cl)cc2)cc1)C(=O)N[C@@H](CCC(=O)O)C(=O)O [FFP, (S)-2-((S)-2-(2-(4-(4-chlorobenzoyl)phenoxy)-2-methylpropanamido)propanamido)pentanedioic acid]
- fatty acid uptake ([1]; 10 or 100 μM, last 2 days of culture): more pronounced
- oxygen consumption rates (OXPHOS) [4]: increased
- blast formation ([3]; 100 μM, last 2 days of culture, FIG. 9): reduced blast formation
